Assay [1] concerns Spn548. The assay can be described thus: Bacterial susceptibility testing in liquid media, Spn548 MIC. Particulars: Streptococcus pneumoniae, 24 h, read-out: Spn548 Mean MIC.
In assay [2] the test system is M. tuberculosis. Nature of the assay: Mycobacteria susceptibility testing, Microplate Alamar Blue Assay, Mtu MIC. In kind it is cell-based, Mycobacterium tuberculosis (Mtu). Particulars: for MIC: Mycobacterium tuberculosis. For orientation: Alamar Blue is a resazurin reagent that responds to reducing activity.
Assay [3] deals with Eco-tolC. Nature of the assay: Bacterial susceptibility testing in liquid media, Eco-tolC MIC. Particulars: for MIC: Escherichia coli, read-out: Eco-tolC MIC.
Source text: Compounds may be tested for antimicrobial activity by susceptibility testing in liquid media. Compounds may be dissolved in dimethylsulfoxide and tested in 10 doubling dilutions in the susceptibility assays. The organisms used in the assay may be grown overnight on suitable agar media and then suspended in a liquid medium appropriate for the growth of the organism. The suspension can be a 0.5 McFarland and a further 1 in 10 dilution can be made into the same liquid medium to prepare the final organism suspension in 100 μL. Plates can be incubated under appropriate conditions at 37° C. for 24 hrs prior to reading.
Assay [4] has as its target T1, Msm. GyrB (Mycolicibacterium smegmatis, UniProt A0QNE0).
T1 construct: 15 nM Msm; GyrB, 650 μM ATP, and compound in dimethyl sulfoxide
The assay can be described thus: Msmegmatis GyrB enzyme assay (ATPase, malachite green phosphate detection). It is filed as biochemical. Particulars: read-out: Msm_GyrB IC50. The procedure:
Compounds may be tested for inhibition of GyrB ATPase activity using an ammonium molybdate/malachite green-based phosphate detection assay (Lanzetta, P. A., L. J. Alvarez, P. S. Reinach, and O. A. Candia, 1979, 100: 95-97; Innova Biosciences malachite green detection kit). Assays can be performed in multi-well plates in 50 μl reactions containing: 50 mM HEPES buffer pH 7.7, 250 mM potassium glutamate, 200 mM potassium chloride, 2 mM magnesium chloride, 2% glycerol, 1 mM 1,4-Dithio-DL-threitol, 0.005% Brij-35, 15 nM Msm. GyrB, 650 μM ATP, and compound in dimethyl sulfoxide. Reactions can be quenched with 12.5 μl of ammonium molybdate/malachite green detection reagent (Pi color lock gold & accelerator mix; Innova Biosciences), followed by the addition of 5 μl of stabilizer (Innova Biosciences) after 5 min of incubation.

Data on 27 compounds can be found in patent US20100137303A1, “NEW COMPOUND 255” (AstraZeneca AB, priority 2008, published 2010).

Values after ≈ are worked out from the molar mass of the structure shown. Bounds are passed on as bounds.

T1 sequence (A0QNE0 whole entry): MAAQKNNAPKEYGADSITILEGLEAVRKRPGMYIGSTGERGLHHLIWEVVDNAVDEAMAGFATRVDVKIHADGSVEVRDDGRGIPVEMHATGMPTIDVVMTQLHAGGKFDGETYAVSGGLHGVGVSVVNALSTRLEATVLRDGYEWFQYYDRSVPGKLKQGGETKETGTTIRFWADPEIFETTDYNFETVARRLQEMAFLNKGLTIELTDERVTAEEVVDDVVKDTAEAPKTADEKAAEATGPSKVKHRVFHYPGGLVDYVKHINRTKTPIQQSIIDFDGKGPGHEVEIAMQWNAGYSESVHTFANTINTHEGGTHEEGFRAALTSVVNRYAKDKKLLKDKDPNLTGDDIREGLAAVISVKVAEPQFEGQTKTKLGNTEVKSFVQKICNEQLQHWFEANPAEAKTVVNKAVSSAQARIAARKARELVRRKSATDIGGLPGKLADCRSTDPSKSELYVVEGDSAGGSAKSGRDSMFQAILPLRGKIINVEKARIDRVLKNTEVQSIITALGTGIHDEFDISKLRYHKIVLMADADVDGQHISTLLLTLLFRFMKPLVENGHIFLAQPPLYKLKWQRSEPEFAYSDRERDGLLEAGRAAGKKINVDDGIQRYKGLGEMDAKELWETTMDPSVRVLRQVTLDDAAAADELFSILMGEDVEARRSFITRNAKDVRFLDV

As for `CCNC(=O)Nc1nc2cc(-c3cncnc3)c(OCC3CCOC3)nc2s1` (single isomer, unassigned; isomer 1) [Example 68, 1-ethyl-3-[6-pyrimidin-5-yl-5-(tetrahydrofuran-3-ylmethoxy)[1,3]thiazolo[5,4-b]pyridin-2-yl]urea (Chiral isomer 1)], the values for the MIC in assay [1], in assay [2] and in assay [3] were 0.125 µg/mL (≈ 0.312 µM), 0.0884 µg/mL (≈ 0.221 µM) and 0.5 µg/mL (≈ 1.25 µM), respectively.

`CCNC(=O)Nc1nc2cc(-c3cncnc3)c(OCC3CCOC3)nc2s1` (single isomer, unassigned; isomer 2) [Example 69, 1-ethyl-3-[6-pyrimidin-5-yl-5-(tetrahydrofuran-3-ylmethoxy)[1,3]thiazolo[5,4-b]pyridin-2-yl]urea (Chiral isomer 2)]: in assay [2], the “Mtu MIC” value amounted to 0.08839 µg/mL. Moreover, in assay [3], the “Eco-tolC MIC” value was determined as 0.25 µg/mL.

`C=CCNC(=O)Nc1nc2cc(Cl)cnc2s1` [Example 1, 1-Allyl-3-(6-chloro-thiazolo [5,4-b]pyridin-2-yl)-urea]: the MIC (commonly the lowest concentration found to suppress growth) in assay [1] turned out to be 8 µg/mL (≈ 29.8 µM); in assay [2] it was 16 µg/mL (≈ 59.5 µM); in assay [3] it was 16 µg/mL (≈ 59.5 µM). Also, the IC50 – broadly, the concentration that inhibits the measured activity by half – in assay [4] worked out at 191 nM.

Consider `C=CCNC(=O)Nc1nc2cc(Br)c(C)nc2s1` [Example 2, 1-Allyl-3-(6-bromo-5-methyl-thiazolo [5,4-b]pyridin-2-yl)-urea], for which the figures for the MIC in assay [1] and in assay [3] were > 32 µg/mL and 32 µg/mL (≈ 97.8 µM), respectively. Moreover, the IC50 in assay [4] turned out to be 2190 nM.

For the compound `C=CCNC(=O)Nc1nc2cc(-c3cccnc3)cnc2s1` [Example 3, 1-allyl-3-[6-(3-pyridyl)thiazolo [5,4-b]pyridin-2-yl] urea], the MIC is 1 µg/mL (≈ 3.21 µM) in assay [1], 10.1 µg/mL (≈ 32.4 µM) in assay [2] and > 64 µg/mL in assay [3].

Regarding `CCNC(=O)Nc1nc2cc(-c3cnc(OC)nc3)cnc2s1` [Example 4, 1-ethyl-3-[6-(2-methoxypyrimidin-5-yl)thiazolo [5,4-b]pyridin-2-yl] urea], the MIC was 0.5 µg/mL (≈ 1.51 µM) in assay [1], > 8 µg/mL in assay [2] and > 64 µg/mL in assay [3]. Moreover, in assay [4], the IC50 was found to be 140 nM.

In the case of `CCNC(=O)Nc1nc2cc(-c3cccnc3)cnc2s1` [Example 5, 1-Ethyl-3-(6-pyridin-3-yl-thiazolo [5,4-b]pyridin-2-yl)-urea], the MIC in assay [1] was 1.56 µg/mL (≈ 5.21 µM); in assay [3], 8.83 µg/mL (≈ 29.5 µM).

Regarding `C=CCNC(=O)Nc1nc2cc(-c3cncnc3)c(C)nc2s1` [Example 6, 1-Allyl-3-(5-methyl-6-pyrimidin-5-yl-thiazolo [5,4-b]pyridin-2-yl)-urea], the MIC is 1.01 µg/mL (≈ 3.09 µM) in assay [1], 8 µg/mL (≈ 24.5 µM) in assay [2] and 32.3 µg/mL (≈ 99 µM) in assay [3]. The IC50 in assay [4] came out at 151 nM.

Turning to `C=CCNC(=O)Nc1nc2cc(-c3cnc(OC)nc3)c(C)nc2s1` [Example 7, 1-Allyl-3-[6-(2-methoxy-pyrimidin-5-yl)-5-methyl-thiazolo [5,4-b]pyridin-2-yl]-urea], the MIC is 0.0625 µg/mL (≈ 0.175 µM) in assay [1], 32 µg/mL (≈ 89.8 µM) in assay [2] and > 32 µg/mL in assay [3]. Also, in assay [4], the IC50 was found to be 239 nM.

Consider `C=CCNC(=O)Nc1nc2cc(-c3cncc(C(=O)OCC)c3)c(C)nc2s1` [Example 8, 5-[2-(3-Allyl-ureido)-5-methyl-thiazolo [5,4-b]pyridin-6-yl]-nicotinic acid ethyl ester], for which the MIC in assay [1] is > 39.8 µg/mL; in assay [2], > 32 µg/mL; in assay [3], > 39.8 µg/mL. Also, the IC50 in assay [4] amounted to 151 nM.

For `C=CCNC(=O)Nc1nc2cc(-c3cccnc3)c(OCCN3CCOCC3)nc2s1` [Example 28, 1-[5-(2-morpholin-4-ylethoxy)-6-pyridin-3-yl[1,3]thiazolo[5,4-b]pyridin-2-yl]-3-prop-2-en-1-ylurea], the values for the MIC in assay [1], in assay [2] and in assay [3] were 4 µg/mL (≈ 9.08 µM), > 22.6 µg/mL and > 32 µg/mL, respectively.

As to `C=CCNC(=O)Nc1nc2cc(-c3cccnc3)c(OCCOC)nc2s1` [Example 29, 1-[5-(2-methoxyethoxy)-6-pyridin-3-yl[1,3]thiazolo[5,4-b]pyridin-2-yl]-3-prop-2-en-1-ylurea], the MIC stood at 0.152 µg/mL (≈ 0.395 µM) in assay [1], 4 µg/mL (≈ 10.4 µM) in assay [2] and 1.22 µg/mL (≈ 3.16 µM) in assay [3].

For `CCNC(=O)Nc1nc2cc(-c3cncnc3)c(OCC3CCOC3)nc2s1` (stereo not shown) [Example 36, 1-ethyl-3-[6-pyrimidin-5-yl-5-(tetrahydrofuran-3-ylmethoxy)[1,3]thiazolo[5,4-b]pyridin-2-yl]urea], the MIC in assay [1] was 0.0625 µg/mL (≈ 0.156 µM); in assay [2] it was 0.0544 µg/mL (≈ 0.136 µM); in assay [3] it was 0.125 µg/mL (≈ 0.312 µM).

Consider `CCNC(=O)Nc1nc2cc(-c3ccc(F)nc3)c(OCC3CCOC3)nc2s1` (stereo not shown) [Example 40, 1-ethyl-3-[6-(6-fluoropyridin-3-yl)-5-(tetrahydrofuran-3-ylmethoxy)[1,3]thiazolo[5,4-b]pyridin-2-yl]urea], for which the results for the MIC in assay [1], in assay [2] and in assay [3] were 0.0714 µg/mL (≈ 0.171 µM), 0.354 µg/mL (≈ 0.847 µM) and 0.571 µg/mL (≈ 1.37 µM), respectively.

Regarding `CCNC(=O)Nc1nc2cc(-c3cccnc3)c(OCC3CCOC3)nc2s1` (stereo not shown) [Example 42, 1-ethyl-3-[6-pyridin-3-yl-5-(tetrahydrofuran-3-ylmethoxy)[1,3]thiazolo[5,4-b]pyridin-2-yl]urea], the MIC came out at 0.078 µg/mL (≈ 0.195 µM) in assay [1], 0.42 µg/mL (≈ 1.05 µM) in assay [2] and 1.25 µg/mL (≈ 3.12 µM) in assay [3].

For the compound `CCNC(=O)Nc1nc2cc(-c3cncnc3)c(OCCOC)nc2s1` [Example 44, 1-ethyl-3-[5-(2-methoxyethoxy)-6-pyrimidin-5-yl[1,3]thiazolo[5,4-b]pyridin-2-yl]urea], the MIC in assay [1] was 0.0731 µg/mL (≈ 0.195 µM); in assay [2], 0.25 µg/mL (≈ 0.668 µM); in assay [3], 1.17 µg/mL (≈ 3.12 µM).

Take `CCNC(=O)Nc1nc2cc(-c3cccnc3)c(OCCOC)nc2s1` [Example 45, 1-ethyl-3-[5-(2-methoxyethoxy)-6-pyridin-3-yl[1,3]thiazolo[5,4-b]pyridin-2-yl]urea]: the MIC was found to be 0.292 µg/mL (≈ 0.781 µM) in assay [1], 1 µg/mL (≈ 2.68 µM) in assay [2] and 4.67 µg/mL (≈ 12.5 µM) in assay [3].

In the case of `CCNC(=O)Nc1nc2cc(-c3ccc(C#N)nc3)c(OCC3CCOC3)nc2s1` (stereo not shown) [Example 54, 1-[6-(6-cyanopyridin-3-yl)-5-(tetrahydrofuran-3-ylmethoxy)[1,3]thiazolo[5,4-b]pyridin-2-yl]-3-ethylurea], the MIC in assay [1] turned out to be 0.0625 µg/mL (≈ 0.147 µM); in assay [2] it was 0.177 µg/mL (≈ 0.417 µM); in assay [3], 1 µg/mL (≈ 2.36 µM).

As for `CCNC(=O)Nc1nc2cc(-c3cncc(C#N)c3)c(OCC3CCOC3)nc2s1` (stereo not shown) [Example 57, 1-[6-(5-cyanopyridin-3-yl)-5-(tetrahydrofuran-3-ylmethoxy)[1,3]thiazolo[5,4-b]pyridin-2-yl]-3-ethylurea], the figures for the MIC in assay [1], in assay [2] and in assay [3] were 0.0625 µg/mL (≈ 0.147 µM), 0.25 µg/mL (≈ 0.589 µM) and 0.0625 µg/mL (≈ 0.147 µM), respectively.

For `CCNC(=O)Nc1nc2cc(-c3cnn(C)c3)c(OCC3CCOC3)nc2s1` (stereo not shown) [Example 71, 1-ethyl-3-[6-(1-methyl-1H-pyrazol-4-yl)-5-(tetrahydrofuran-3-ylmethoxy)[1,3]thiazolo[5,4-b]pyridin-2-yl]urea], the MIC is 0.125 µg/mL (≈ 0.311 µM) in assay [1], 0.707 µg/mL (≈ 1.76 µM) in assay [2] and 0.5 µg/mL (≈ 1.24 µM) in assay [3].

For `CCNC(=O)Nc1nc2cc(-c3cncnc3)c(OC(C)C)nc2s1` [Example 73, 1-ethyl-3-[5-(1-methylethoxy)-6-pyrimidin-5-yl[1,3]thiazolo[5,4-b]pyridin-2-yl]urea], the minimum inhibitory concentration (MIC) in assay [2] was 0.125 µg/mL (≈ 0.349 µM). Further, the IC50 in assay [4] stood at 5.2 nM.

With `CCNC(=O)Nc1nc2cc(-c3ccc(F)nc3)c(OC(C)C)nc2s1` [Example 74, 1-ethyl-3-[6-(6-fluoropyridin-3-yl)-5-(1-methylethoxy)[1,3]thiazolo[5,4-b]pyridin-2-yl]urea], the MIC in assay [2] came to 1 µg/mL (≈ 2.66 µM). Besides, the IC50 in assay [4] is 10 nM.

`CCNC(=O)Nc1nc2cc(-c3cnc(C#N)nc3)c(OC3CCOC3)nc2s1` (stereo not shown) [Example 75, 1-[6-(2-cyanopyrimidin-5-yl)-5-(tetrahydrofuran-3-yloxy)[1,3]thiazolo[5,4-b]pyridin-2-yl]-3-ethylurea]: the MIC in assay [2] was < 0.06 µg/mL. Further, in assay [4], the IC50 is < 2.54 nM.

Turning to `CCNC(=O)Nc1nc2cc(-c3ccc(F)nc3)c(OC3CCOC3)nc2s1` (stereo not shown) [Example 76, 1-ethyl-3-[6-(6-fluoropyridin-3-yl)-5-(tetrahydrofuran-3-yloxy)[1,3]thiazolo[5,4-b]pyridin-2-yl]urea], the MIC in assay [2] is 0.5 µg/mL (≈ 1.24 µM). In addition, the IC50 in assay [4] was 3.54 nM.

`CCNC(=O)Nc1nc2cc(-c3cnc(C(F)(F)F)nc3)c(OCC3CCOC3)nc2s1` (stereo not shown) [Example 77, 1-ethyl-3-{5-(tetrahydrofuran-3-ylmethoxy)-6-[2-(trifluoromethyl)pyrimidin-5-yl][1,3]thiazolo[5,4-b]pyridin-2-yl}urea]: in assay [2], it took 2.83 µg/mL (≈ 6.04 µM) to inhibit growth (MIC). Also, in assay [4], the IC50 turned out to be 2.9 nM.

The compound `CCNC(=O)Nc1nc2cc(-c3cncc(-c4n[nH]c(=O)o4)c3)c(OCC3CCOC3)nc2s1` (stereo not shown) [Example 78, 1-ethyl-3-{6-[5-(5-oxo-4,5-dihydro-1,3,4-oxadiazol-2-yl)pyridin-3-yl]-5-(tetrahydrofuran-3-ylmethoxy)[1,3]thiazolo[5,4-b]pyridin-2-yl}urea] showed an MIC in assay [2] of 8 µg/mL (≈ 16.5 µM). Further, the IC50 in assay [4] was < 2.54 nM.

The compound `CCNC(=O)Nc1nc2cc(-c3cncc(F)c3)c(OCC3CCOC3)nc2s1` (stereo not shown) [Example 79, 1-ethyl-3-[6-(5-fluoropyridin-3-yl)-5-(tetrahydrofuran-3-ylmethoxy)[1,3]thiazolo[5,4-b]pyridin-2-yl]urea] showed an MIC in assay [2] of 0.354 µg/mL (≈ 0.847 µM).
